This note sets out measurements from patent publication US10457677B2 (priority 2015, dated 2019).

One test concerns the target PI3K p110β/p85α (human) (Homo sapiens (Human), UniProt P42338). In words: PI3K p110β/p85α (human), non-radioactive assay (HTRF). The format is biochemical. To be noted: read-out: IC50 (PI3Kbeta). How it is done: PI3K p110β/p85α (Human), Non-radioactive Assay
PI3K p110β/p85α (human) was incubated in an assay buffer comprising 10 μM phosphati-dylinositol 4,5-bisphosphate and MgATP (concentration as necessary). The reaction was initiated by addition of MgATP solution. After an incubation time of 30 min at room temperature, the reaction was stopped by addition of a solution consisting of EDTA and biotinylated phosphatidylinositol 3,4,5-trisphosphate. Finally, the detection buffer, consisting of a europium-labelled anti-GST monoclonal antibody, a GST-labelled GRP1 PH domain and streptavidin allophycocyanin, was added. The plate was read out via homogeneous time-resolved fluorescence (HTRF) and the corresponding signals were evaluated via the formula HTRF=10000×(Em665nm/Em620nm).
For orientation: Time-resolved FRET reads energy transfer from a long-lived donor to a nearby acceptor.

Test [1] deals with purified human recombinant ATM (ataxia telangiectasia mutated), full length (Homo sapiens (Human), UniProt Q13315). In words: ATM kinase assay - determination of ATM inhibition (IC50 ATM), TR-FRET. The test is classed as biochemical. The method, boiled down: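 Full-length enzyme, expressed in a mammalian cell line, pre-incubated 15 min with inhibitor in 25 mM HEPES pH 8.0, 10 mM Mg(CH3COO)2, 1 mM MnCl2, 0,1% BSA, 0,01% Brij 35, 5 mM DTT. Full-length cmyc-p53 (Sf21-expressed) and ATP then added, 30-35 min at 22° C. EDTA stop; p53 S15 phosphorylation read by TR-FRET antibodies.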

In the next test the target is PI3K p110δ/p85α (human) (Homo sapiens (Human), UniProt O00329). In words: PI3K p110δ/p85α (human), non-radioactive assay (HTRF). The test is classed as biochemical. The settings on record: read-out: IC50 (PI3Kdelta).
The next test concerns the target PI3K (p120γ) (human) (Homo sapiens (Human), UniProt P48736). In words: PI3K (p120γ) (human), non-radioactive assay (HTRF). The test is classed as biochemical. To be noted: read-out: IC50 (PI3Kgamma). In short, it runs like this: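 Enzyme was run with 10 μM phosphatidylinositol 4,5-bisphosphate, starting the reaction with MgATP at an unspecified level, for 30 min at room temperature. The stop used EDTA plus biotinylated PIP3, and detection used Eu-anti-GST, GST-GRP1 PH domain and streptavidin-APC. Signal was taken as HTRF = 10000×(Em665nm/Em620nm).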

Test [2] has as its system phosphorylation of CHK2 (phospho-Thr68) in HCT116 cells. In words: Cellular pCHK2 assay: bleomycin-induced phosphorylation of CHK2 (phospho-Thr68), immunofluorescence high-content analysis. The test is classed as cell-based, human. To be noted: Homo sapiens, HCT-116, 4 h, read-out: IC50 (pCHK2). In short, it runs like this:
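HCT116 cells in DMEM with 10% FCS, incubated overnight at 37° C, then given compounds (1 nM to 30 μM, 0.5% DMSO) together with 10 μM bleomycin. Phospho-Thr68 CHK2 immunostained and imaged by high-content imager; nuclei with pCHK2 above background counted, cell count from propidium iodide DNA stain.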

The target in the next test is mTOR (human) (Homo sapiens (Human), UniProt P42345). In words: mTOR (human) kinase assay, [γ-33P-ATP] filter assay. The test is classed as biochemical. In short, it runs like this: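 Radiometric filter assay: enzyme in 50 mM HEPES pH 7.5, 1 mM EGTA, 0.01% Tween 20, 3 mM MnCl2, 2 mg/ml substrate with [γ-33P-ATP], started with MgATP. Incubated 40 min at room temperature, stopped with 3% phosphoric acid; incorporation measured on P30 filtermat by scintillation counting.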

In the next test the target is PI3K p110α/p85α (human) (Homo sapiens (Human), UniProt P42336). In words: PI3K p110α/p85α (human), non-radioactive assay (HTRF). The format is biochemical. The settings on record: read-out: IC50 (PI3Kalpha).

pIC50: −log10 of the molar value. Like-named read-outs stand apart in the source and are kept apart here.

Sequence of PI3K p110δ/p85α (human) (O00329 whole entry, the tested form may be a part): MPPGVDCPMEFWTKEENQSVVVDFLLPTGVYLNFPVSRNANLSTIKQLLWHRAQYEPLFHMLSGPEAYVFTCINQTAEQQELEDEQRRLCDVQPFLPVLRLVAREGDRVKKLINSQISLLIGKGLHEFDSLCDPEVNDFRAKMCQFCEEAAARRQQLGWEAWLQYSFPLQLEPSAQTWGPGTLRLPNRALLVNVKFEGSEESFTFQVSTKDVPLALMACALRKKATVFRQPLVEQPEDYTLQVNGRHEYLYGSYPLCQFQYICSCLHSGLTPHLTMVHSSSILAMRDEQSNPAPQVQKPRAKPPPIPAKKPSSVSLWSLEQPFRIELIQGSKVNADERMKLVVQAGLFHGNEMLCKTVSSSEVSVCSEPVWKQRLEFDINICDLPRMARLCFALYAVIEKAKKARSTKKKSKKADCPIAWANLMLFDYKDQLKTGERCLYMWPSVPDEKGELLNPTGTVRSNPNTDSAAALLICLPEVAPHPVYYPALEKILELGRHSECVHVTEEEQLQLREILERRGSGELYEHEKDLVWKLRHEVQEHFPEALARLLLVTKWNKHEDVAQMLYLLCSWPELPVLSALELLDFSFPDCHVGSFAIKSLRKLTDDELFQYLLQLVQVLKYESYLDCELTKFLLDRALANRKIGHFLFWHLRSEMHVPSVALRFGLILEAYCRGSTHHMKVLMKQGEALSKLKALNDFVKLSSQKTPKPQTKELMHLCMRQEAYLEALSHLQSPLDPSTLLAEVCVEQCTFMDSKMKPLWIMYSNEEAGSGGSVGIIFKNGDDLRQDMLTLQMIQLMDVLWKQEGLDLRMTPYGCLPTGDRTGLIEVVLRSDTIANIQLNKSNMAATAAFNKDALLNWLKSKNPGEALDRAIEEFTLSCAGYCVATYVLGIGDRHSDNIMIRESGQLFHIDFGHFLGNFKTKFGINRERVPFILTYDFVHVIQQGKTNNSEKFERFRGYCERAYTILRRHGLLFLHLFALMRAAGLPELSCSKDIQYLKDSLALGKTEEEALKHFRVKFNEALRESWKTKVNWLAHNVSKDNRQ
Sequence of PI3K p110δ/p85α (human) (P27986 whole entry partner, the tested form may be a part): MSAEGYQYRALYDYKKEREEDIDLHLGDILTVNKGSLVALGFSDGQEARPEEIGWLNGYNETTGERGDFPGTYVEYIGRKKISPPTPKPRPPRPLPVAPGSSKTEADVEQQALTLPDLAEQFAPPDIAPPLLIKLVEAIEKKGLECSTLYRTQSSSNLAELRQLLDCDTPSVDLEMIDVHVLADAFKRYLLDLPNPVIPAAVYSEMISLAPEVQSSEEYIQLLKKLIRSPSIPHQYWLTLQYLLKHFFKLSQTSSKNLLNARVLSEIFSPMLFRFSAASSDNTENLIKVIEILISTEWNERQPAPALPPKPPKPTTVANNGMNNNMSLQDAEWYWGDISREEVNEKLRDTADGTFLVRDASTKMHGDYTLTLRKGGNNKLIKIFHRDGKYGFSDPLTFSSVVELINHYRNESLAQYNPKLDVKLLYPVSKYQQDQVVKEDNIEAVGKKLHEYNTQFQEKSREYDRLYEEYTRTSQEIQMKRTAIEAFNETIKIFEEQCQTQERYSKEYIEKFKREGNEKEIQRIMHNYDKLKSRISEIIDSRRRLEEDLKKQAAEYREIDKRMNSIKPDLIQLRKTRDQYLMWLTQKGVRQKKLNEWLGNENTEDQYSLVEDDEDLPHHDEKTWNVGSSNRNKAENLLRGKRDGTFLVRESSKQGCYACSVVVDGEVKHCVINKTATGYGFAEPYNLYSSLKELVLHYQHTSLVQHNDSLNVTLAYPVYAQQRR
Sequence of PI3K p110α/p85α (human) (P42336 whole entry): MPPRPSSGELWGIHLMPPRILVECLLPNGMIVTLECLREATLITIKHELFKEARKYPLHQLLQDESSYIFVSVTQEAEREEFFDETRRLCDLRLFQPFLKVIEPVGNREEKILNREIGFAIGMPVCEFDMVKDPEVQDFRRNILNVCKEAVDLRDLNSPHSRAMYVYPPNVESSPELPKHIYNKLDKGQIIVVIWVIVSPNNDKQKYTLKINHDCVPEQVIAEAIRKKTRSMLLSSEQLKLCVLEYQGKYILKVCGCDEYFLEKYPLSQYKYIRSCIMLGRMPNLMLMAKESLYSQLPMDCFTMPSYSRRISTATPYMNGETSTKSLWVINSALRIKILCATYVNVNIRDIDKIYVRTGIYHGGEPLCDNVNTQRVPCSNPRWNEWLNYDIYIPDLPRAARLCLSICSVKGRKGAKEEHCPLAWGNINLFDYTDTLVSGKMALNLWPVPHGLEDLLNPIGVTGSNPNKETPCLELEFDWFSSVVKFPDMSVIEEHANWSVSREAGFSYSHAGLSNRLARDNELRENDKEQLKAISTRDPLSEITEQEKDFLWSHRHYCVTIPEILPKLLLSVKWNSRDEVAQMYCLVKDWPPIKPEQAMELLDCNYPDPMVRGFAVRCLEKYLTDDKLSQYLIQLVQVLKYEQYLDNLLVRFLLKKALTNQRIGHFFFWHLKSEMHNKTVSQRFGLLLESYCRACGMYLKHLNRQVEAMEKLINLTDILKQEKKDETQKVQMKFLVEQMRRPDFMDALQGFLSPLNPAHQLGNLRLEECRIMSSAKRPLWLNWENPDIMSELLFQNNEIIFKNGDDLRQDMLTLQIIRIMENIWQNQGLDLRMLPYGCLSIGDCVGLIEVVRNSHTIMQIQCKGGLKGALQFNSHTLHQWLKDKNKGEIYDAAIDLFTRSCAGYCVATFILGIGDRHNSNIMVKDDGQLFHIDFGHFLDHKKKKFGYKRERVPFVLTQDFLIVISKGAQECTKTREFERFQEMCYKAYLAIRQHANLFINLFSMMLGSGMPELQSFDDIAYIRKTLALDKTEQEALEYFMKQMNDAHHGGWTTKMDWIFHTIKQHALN
Sequence of PI3K p110α/p85α (human) (P27986 whole entry partner): as the sequence (P27986 whole entry partner, the tested form may be a part) above
Sequence of PI3K p110β/p85α (human) (P42338 whole entry, the tested form may be a part): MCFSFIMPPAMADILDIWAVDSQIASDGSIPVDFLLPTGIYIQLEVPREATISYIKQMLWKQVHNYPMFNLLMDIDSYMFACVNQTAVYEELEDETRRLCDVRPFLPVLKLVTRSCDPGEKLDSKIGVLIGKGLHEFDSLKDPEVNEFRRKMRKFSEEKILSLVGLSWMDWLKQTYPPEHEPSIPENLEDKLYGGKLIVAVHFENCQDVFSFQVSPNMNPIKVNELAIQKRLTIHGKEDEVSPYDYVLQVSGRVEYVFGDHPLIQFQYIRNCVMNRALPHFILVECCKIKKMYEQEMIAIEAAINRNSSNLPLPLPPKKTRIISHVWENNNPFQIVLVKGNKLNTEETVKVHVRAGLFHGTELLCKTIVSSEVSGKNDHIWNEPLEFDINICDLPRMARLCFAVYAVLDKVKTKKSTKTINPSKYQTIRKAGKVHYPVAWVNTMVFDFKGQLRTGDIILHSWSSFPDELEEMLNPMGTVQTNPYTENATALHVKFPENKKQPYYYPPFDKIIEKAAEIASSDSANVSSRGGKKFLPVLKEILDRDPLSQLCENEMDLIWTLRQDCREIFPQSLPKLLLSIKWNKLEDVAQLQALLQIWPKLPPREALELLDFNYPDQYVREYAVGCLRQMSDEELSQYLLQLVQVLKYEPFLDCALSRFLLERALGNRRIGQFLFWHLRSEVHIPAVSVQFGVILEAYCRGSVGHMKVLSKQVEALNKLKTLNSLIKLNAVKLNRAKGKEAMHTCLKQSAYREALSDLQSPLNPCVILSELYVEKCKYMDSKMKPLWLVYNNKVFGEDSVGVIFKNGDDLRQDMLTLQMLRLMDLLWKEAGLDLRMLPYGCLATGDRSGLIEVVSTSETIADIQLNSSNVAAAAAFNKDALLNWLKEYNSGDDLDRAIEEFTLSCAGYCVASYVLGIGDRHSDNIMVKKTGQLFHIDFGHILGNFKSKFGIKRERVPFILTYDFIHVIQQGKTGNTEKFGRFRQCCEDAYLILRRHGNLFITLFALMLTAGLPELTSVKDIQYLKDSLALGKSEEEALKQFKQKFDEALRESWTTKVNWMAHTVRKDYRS
Sequence of PI3K p110β/p85α (human) (P27986 whole entry partner, the tested form may be a part): as the sequence (P27986 whole entry partner, the tested form may be a part) above
Sequence of PI3K (p120γ) (human) (P48736 whole entry, the tested form may be a part): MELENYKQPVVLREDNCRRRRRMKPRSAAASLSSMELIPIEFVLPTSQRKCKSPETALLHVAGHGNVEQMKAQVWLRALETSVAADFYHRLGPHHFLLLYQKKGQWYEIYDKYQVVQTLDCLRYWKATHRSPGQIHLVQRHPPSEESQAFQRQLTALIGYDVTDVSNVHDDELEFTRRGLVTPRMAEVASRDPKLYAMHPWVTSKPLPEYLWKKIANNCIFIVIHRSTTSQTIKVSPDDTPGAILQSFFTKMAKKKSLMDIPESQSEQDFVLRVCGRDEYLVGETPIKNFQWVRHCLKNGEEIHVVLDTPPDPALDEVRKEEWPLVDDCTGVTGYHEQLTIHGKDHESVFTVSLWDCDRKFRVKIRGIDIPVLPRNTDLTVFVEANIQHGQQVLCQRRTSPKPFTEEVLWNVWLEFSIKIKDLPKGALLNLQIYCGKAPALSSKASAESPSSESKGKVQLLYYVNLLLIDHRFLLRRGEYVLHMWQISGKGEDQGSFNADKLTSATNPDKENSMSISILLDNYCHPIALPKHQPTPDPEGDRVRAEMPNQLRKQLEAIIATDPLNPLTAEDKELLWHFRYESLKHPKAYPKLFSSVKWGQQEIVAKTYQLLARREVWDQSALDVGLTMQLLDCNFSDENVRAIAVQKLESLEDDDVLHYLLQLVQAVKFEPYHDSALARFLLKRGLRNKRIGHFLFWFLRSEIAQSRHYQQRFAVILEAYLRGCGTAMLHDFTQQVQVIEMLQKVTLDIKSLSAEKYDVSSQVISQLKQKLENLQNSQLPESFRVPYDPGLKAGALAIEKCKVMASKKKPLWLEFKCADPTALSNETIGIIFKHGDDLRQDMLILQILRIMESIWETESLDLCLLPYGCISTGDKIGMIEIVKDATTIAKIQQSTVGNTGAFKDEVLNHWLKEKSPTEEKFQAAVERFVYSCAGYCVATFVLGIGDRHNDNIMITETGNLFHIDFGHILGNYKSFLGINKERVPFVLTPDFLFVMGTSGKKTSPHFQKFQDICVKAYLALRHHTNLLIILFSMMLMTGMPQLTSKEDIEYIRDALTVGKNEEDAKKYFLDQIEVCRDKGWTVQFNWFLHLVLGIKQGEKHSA

As to `COc1cc2ncc3c(c2cc1-c1cn[nH]c1)n(-c1ccncc1F)c(=O)n3C` [Compound Example 9, 1-(3-Fluoropyridin-4-yl)-7-methoxy-3-methyl-8-(1H-pyrazol-4-yl)-1,3-dihydro-imidazo[4,5-c]quinolin-2-one], the pIC50 at PI3K p110β/p85α (human) was under 4.52; in test [1] it was over 9.00; in test [1] (10 μM ATP, substrate p53), over 9.00; on PI3K p110δ/p85α (human), under 4.52; on PI3K (p120γ) (human), under 4.52; in test [2], over 6.70. Moreover, the pIC50 at mTOR (human) is under 5.00; at PI3K p110α/p85α (human), under 4.52.

Take `COc1cc2ncc3c(c2cc1-c1cn(C)nc1C)n(-c1cn(C)nc1C)c(=O)n3C` [Compound Example 10, 1,8-Bis-(1,3-dimethyl-1H-pyrazol-4-yl)-7-methoxy-3-methyl-1,3-dihydroimidazo-[4,5-c]quinolin-2-one]: the pIC50 was under 4.52 on PI3K p110β/p85α (human); over 9.00 in test [1]; over 9.00 in test [1] (10 μM ATP, substrate p53); under 4.52 on PI3K p110δ/p85α (human); under 4.52 on PI3K (p120γ) (human); over 6.70 in test [2]. Further, the pIC50 against mTOR (human) and at PI3K p110α/p85α (human) was under 4.52 each time.

For `COc1cc2ncc3c(c2cc1-c1cn(C)nc1C)n(-c1ncc(F)cc1F)c(=O)n3C` [Compound Example 11, 1-(3,5-Difluoropyridin-2-yl)-8-(1,3-dimethyl-1H-pyrazol-4-yl)-7-methoxy-3-methyl-1,3-dihydroimidazo[4,5-c]-quinolin-2-one], the pIC50 is under 4.52 on PI3K p110β/p85α (human); over 9.00 in test [1]; over 9.00 in test [1] (10 μM ATP, substrate p53); under 4.52 at PI3K p110δ/p85α (human); under 4.52 at PI3K (p120γ) (human); over 6.70 in test [2]. Also, the pIC50 at mTOR (human) and on PI3K p110α/p85α (human) was under 4.52 throughout.

With `CCc1cncc(F)c1-n1c(=O)n(C)c2cnc3cc(OC)c(-c4cnn(C)c4)cc3c21` [Compound Example 12, 1-(3-Ethyl-5-fluoropyridin-4-yl)-7-methoxy-3-methyl-8-(1-methyl-1H-pyrazol-4-yl)-1,3-dihydroimidazo[4,5-c]-quinolin-2-one], the pIC50 is under 4.52 at PI3K p110β/p85α (human); over 9.00 in test [1]; over 9.00 in test [1] (10 μM ATP, substrate p53); under 4.52 on PI3K p110δ/p85α (human); under 4.52 at PI3K (p120γ) (human); over 6.70 in test [2]. In addition, the pIC50 on mTOR (human) and on PI3K p110α/p85α (human) was under 4.52 each time.

For the molecule `COc1cc2ncc3c(c2cc1-c1cnn(C)c1)n(-c1ncccc1F)c(=O)n3C` [Compound Example 14, 1-(3-Fluoropyridin-2-yl)-7-methoxy-3-methyl-8-(1-methyl-1H-pyrazol-4-yl)-1,3-dihydroimidazo[4,5-c]-quinolin-2-one], the pIC50 was under 4.52 on PI3K p110β/p85α (human); over 9.00 in test [1]; over 9.00 in test [1] (10 μM ATP, substrate p53); under 4.52 at PI3K p110δ/p85α (human); under 4.52 at PI3K (p120γ) (human); over 6.70 in test [2]. The pIC50 against mTOR (human) and on PI3K p110α/p85α (human) was under 4.52 in each case.

As for `COc1cc2ncc3c(c2cc1-c1cnn(C)c1)n(-c1c(F)cncc1OC)c(=O)n3C` [Compound Example 15, 1-(3-Fluoro-5-methoxypyridin-4-yl)-7-methoxy-3-methyl-8-(1-methyl-1H-pyrazol-4-yl)-1,3-dihydroimidazo[4,5-c]-quinolin-2-one], the pIC50 on PI3K p110β/p85α (human) is under 4.52; in test [1], over 9.00; in test [1] (10 μM ATP, substrate p53) it was over 9.00; at PI3K p110δ/p85α (human), under 4.52; on PI3K (p120γ) (human), under 4.52; in test [2], over 6.70. The pIC50 at mTOR (human) and at PI3K p110α/p85α (human) was under 4.52 in each case.

Take `COc1cc2ncc3c(c2cc1-c1cn(C)nc1C)n(-c1ncccc1F)c(=O)n3C` [Compound Example 16, 8-(1,3-Dimethyl-1H-pyrazol-4-yl)-1-(3-fluoropyridin-2-yl)-7-methoxy-3-methyl-1,3-dihydroimidazo[4,5-c] quinolin-2-one]: the pIC50 on PI3K p110β/p85α (human) was under 4.52; in test [1], over 9.00; in test [1] (10 μM ATP, substrate p53) it was over 9.00; on PI3K p110δ/p85α (human), under 4.52; on PI3K (p120γ) (human), under 4.52; in test [2], over 6.70. Besides, the pIC50 on mTOR (human) and at PI3K p110α/p85α (human) was under 4.52 throughout.

For `COc1cc2ncc3c(c2cc1-c1cn[nH]c1)n(-c1cnn(C)c1)c(=O)n3C` [Compound Example 17, 7-Methoxy-3-methyl-1-(1-methyl-1H-pyrazol-4-yl)-8-(1H-pyrazol-4-yl)-1,3-dihydroimidazo[4,5-c] quinolin-2-one], the pIC50 at PI3K p110β/p85α (human) is under 4.52; in test [1], over 8.00; in test [1] (10 μM ATP, substrate p53), over 9.00; on PI3K p110δ/p85α (human) it was under 4.52; at PI3K (p120γ) (human), under 4.52; in test [2], over 6.70. Further, the pIC50 is under 5.00 at mTOR (human) and under 4.52 at PI3K p110α/p85α (human).

Turning to `COc1cc2ncc3c(c2cc1-c1cnn(C)c1)n(-c1c(C)cncc1F)c(=O)n3C` [Compound Example 18, 1-(3-Fluoro-5-methylpyridin-4-yl)-7-methoxy-3-methyl-8-(1-methyl-1H-pyrazol-4-yl)-1,3-dihydroimidazo[4,5-c] quinolin-2-one], the pIC50 was under 4.52 on PI3K p110β/p85α (human); over 9.00 in test [1]; over 8.00 in test [1] (10 μM ATP, substrate p53); under 4.52 at PI3K p110δ/p85α (human); under 5.30 at PI3K (p120γ) (human); over 6.70 in test [2]. Besides, the figures for the pIC50 against mTOR (human) and at PI3K p110α/p85α (human) were under 5.30 and under 5.00, respectively.

On to `COc1cc2ncc3c(c2cc1-c1cn[nH]c1)n(-c1ncc(C)cc1F)c(=O)n3C` [Compound Example 20, 1-(3-Fluoro-5-methylpyridin-2-yl)-7-methoxy-3-methyl-8-(1H-pyrazol-4-yl)-1,3-dihydroimidazo[4,5-c] quinolin-2-one], for which the pIC50 at PI3K p110β/p85α (human) is under 4.52; in test [1] it was over 9.00; in test [1] (10 μM ATP, substrate p53) it was over 9.00; on PI3K p110δ/p85α (human) it was under 4.52; at PI3K (p120γ) (human) it was under 4.52; in test [2], over 6.70. Also, the pIC50 at mTOR (human) and on PI3K p110α/p85α (human) was under 4.52 throughout.

`CCn1cc(-c2cc3c(cc2OC)ncc2c3n(-c3cn(C)nc3C)c(=O)n2C)cn1` [Compound Example 21, 1-(1,3-Dimethyl-1H-pyrazol-4-yl)-8-(1-ethyl-1H-pyrazol-4-yl)-7-methoxy-3-methyl-1,3-dihydroimidazo[4,5-c] quinolin-2-one]: the pIC50 is under 4.52 at PI3K p110β/p85α (human); over 9.00 in test [1]; over 9.00 in test [1] (10 μM ATP, substrate p53); under 4.52 at PI3K p110δ/p85α (human); under 3.52 at PI3K (p120γ) (human); over 6.70 in test [2]. For the same molecule, the pIC50 was under 5.30 against mTOR (human) and under 4.70 at PI3K p110α/p85α (human).

On to `COc1cc2ncc3c(c2cc1-c1cnn(C)c1)n(-c1cnn(C)c1)c(=O)n3C` [Compound Example 23, 7-Methoxy-3-methyl-1,8-bis-(1-methyl-1H-pyrazol-4-yl)-1,3-dihydroimidazo[4,5-c] quinolin-2-one], for which the pIC50 at PI3K p110β/p85α (human) was under 4.52; in test [1], over 8.00; in test [1] (10 μM ATP, substrate p53) it was over 8.00; on PI3K p110δ/p85α (human), under 4.52; on PI3K (p120γ) (human) it was under 4.52; in test [2], over 6.70. Also, the pIC50 at mTOR (human) and on PI3K p110α/p85α (human) was under 4.70 each time.

On to `CCn1cc(-c2cc3c(cc2OC)ncc2c3n(-c3ncccc3F)c(=O)n2C)cn1` [Compound Example 24, 8-(1-Ethyl-1H-pyrazol-4-yl)-1-(3-fluoropyridin-2-yl)-7-methoxy-3-methyl-1,3-dihydroimidazo[4,5-c] quinolin-2-one], for which the pIC50 at PI3K p110β/p85α (human) was under 4.52; in test [1], over 9.00; in test [1] (10 μM ATP, substrate p53) it was over 9.00; on PI3K p110δ/p85α (human), under 4.52; on PI3K (p120γ) (human) it was under 4.52; in test [2] it was over 6.70. Also, the pIC50 at mTOR (human) and at PI3K p110α/p85α (human) was under 4.52 each time.
